Results reported in patent publication US20230272465A1, “Systems and Methods to Enhance RNA Transcription and Uses Thereof” (The Board of Trustees of the Leland Stanford Junior …, priority 2020, published 2023).
“Also recorded” adds a separate entry of the source.

Legend:
Assay type in all cases: biochemical
T7 RNA polymerase [1] = target: T1, T7 RNA polymerase (Escherichia phage T7, UniProt P00573); experiment: Gel electrophoresis of T7 transcription reaction products; details: 0.1 mM, 1 mM, 10 mM VRC versus 0 mM control; FIG. 3
T1 sequence (P00573 whole entry): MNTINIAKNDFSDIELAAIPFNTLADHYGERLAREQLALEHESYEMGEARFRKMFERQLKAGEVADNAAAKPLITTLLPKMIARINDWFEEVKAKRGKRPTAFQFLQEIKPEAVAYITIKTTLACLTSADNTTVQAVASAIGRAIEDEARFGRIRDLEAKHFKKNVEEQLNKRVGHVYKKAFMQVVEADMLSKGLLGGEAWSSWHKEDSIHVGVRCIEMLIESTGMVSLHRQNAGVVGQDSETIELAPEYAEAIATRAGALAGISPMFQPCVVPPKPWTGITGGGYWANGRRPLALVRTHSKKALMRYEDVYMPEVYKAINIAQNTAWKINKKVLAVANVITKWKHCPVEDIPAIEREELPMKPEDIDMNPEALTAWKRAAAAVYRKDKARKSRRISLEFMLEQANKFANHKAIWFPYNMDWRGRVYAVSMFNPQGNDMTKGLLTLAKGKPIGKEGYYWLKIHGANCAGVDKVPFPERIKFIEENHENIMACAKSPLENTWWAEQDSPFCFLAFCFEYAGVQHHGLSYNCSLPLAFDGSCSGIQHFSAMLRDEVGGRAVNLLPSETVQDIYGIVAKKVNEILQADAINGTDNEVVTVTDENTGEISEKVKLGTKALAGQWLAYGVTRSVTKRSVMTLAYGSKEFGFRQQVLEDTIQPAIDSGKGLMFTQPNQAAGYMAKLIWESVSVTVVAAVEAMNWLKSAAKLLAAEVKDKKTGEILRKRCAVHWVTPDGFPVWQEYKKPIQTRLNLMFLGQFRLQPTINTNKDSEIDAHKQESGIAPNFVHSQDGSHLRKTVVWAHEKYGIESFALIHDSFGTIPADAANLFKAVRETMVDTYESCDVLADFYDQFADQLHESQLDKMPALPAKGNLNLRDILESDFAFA
Description: Methods: A series of standard RNA transcription reactions were performed using T7 polymerase spiked with 0 mM, 0.1 mM, 1 mM, and 10 mM VRC. Post-incubation, the contents of each reaction were electrophoresed on a gel to qualitatively identify reaction product sizes.

T7 RNA polymerase [2] = target: T1, T7 RNA polymerase; experiment: Real-time RNA transcription reaction with T7 polymerase (fluorescence, TECAN plate reader); details: 10 mM VRC, room temperature (~20° C.), 9000 seconds, FIG. 1A
Description: Methods: A series of standard RNA transcription reactions were performed using T7 polymerase spiked with 0 mM, 0.1 mM, 1 mM, and 10 mM VRC. The reaction was performed at room temperature (˜20° C.) for 9000 seconds in a TECAN plate reader. Reaction yield was measured in reach reaction by measuring fluorescence in real-time using the TECAN plate reader.

T7 RNA polymerase [3] = target: T1, T7 RNA polymerase; experiment: RNA yield after post-reaction clean-up, T7 polymerase transcription (NanoDrop UV-Vis); details: 37° C., 4 hours, FIG. 2
Description: Methods: A series of standard RNA transcription reactions were performed using T7 polymerase spiked with 0 mM, 0.1 mM, 1 mM, and 10 mM VRC. The reaction was performed at 37° C. for 4 hours in a thermocycler. A post-reaction clean-up was used to remove any reagents, including enzymes, NTPs, buffers. The reaction was quantified using a NanoDrop UV-Vis spectrometer.

SP6 RNA polymerase = target: T2, SP6 RNA polymerase (Enterobacteria phage SP6, UniProt P06221); experiment: Real-time monitoring of SP6 RNA polymerase transcription reaction; details: FIG. 1B
T2 sequence (P06221 1-874): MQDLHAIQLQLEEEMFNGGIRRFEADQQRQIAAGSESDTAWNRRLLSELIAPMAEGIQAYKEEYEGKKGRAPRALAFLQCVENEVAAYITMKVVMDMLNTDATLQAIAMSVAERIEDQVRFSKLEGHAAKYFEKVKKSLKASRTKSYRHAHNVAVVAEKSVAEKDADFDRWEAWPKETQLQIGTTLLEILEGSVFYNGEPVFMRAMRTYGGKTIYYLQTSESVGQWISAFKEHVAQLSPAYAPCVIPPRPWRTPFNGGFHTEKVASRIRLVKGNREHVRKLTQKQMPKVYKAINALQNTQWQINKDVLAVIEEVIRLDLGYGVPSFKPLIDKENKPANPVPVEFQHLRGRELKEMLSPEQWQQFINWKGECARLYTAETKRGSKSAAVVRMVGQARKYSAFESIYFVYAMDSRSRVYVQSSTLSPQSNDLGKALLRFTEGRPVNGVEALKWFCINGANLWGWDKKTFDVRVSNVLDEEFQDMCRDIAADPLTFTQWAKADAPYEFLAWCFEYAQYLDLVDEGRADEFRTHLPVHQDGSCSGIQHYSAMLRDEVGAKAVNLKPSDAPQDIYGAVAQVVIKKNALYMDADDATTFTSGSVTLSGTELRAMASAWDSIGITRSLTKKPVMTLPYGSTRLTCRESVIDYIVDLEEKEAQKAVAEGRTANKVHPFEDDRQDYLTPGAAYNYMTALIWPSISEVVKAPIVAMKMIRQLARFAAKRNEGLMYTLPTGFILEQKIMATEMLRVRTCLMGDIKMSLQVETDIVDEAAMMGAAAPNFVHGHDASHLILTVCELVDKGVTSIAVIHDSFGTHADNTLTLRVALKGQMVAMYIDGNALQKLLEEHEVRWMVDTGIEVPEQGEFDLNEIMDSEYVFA
Description: Turning to FIGS. 1A-1B, exemplary data of RNA yield measured from real time monitoring of RNA transcription reactions in accordance with certain embodiments are illustrated. In particular, FIG. 1A illustrates exemplary T7 RNA polymerase transcription reaction embodiments using 0.1 mM, 1 mM, and 10 mM concentrations of VRC against a 0 mM control.
However, FIG. 1B illustrates exemplary SP6 RNA polymerase transcription reaction embodiments using 0.1 mM, 1 mM, and 10 mM concentrations of VRC against a 0 mM control.

ribonucleoside vanadyl complex [VRC]
reaction product sizes / degradation products on gel (T7 RNA polymerase [1]): no degradation of products; also recorded: no discernable differences in product sizes
increase in RNA yield over 0 mM control (T7 RNA polymerase [2]): ~1.5 fold
increase in RNA yield over 0 mM control (T7 RNA polymerase [3]; 0.1 mM VRC): approximately 2.3 fold
increase in RNA yield over 0 mM control (T7 RNA polymerase [3]; 1 mM VRC): approximately 1.7 fold
increase in RNA yield over 0 mM control (T7 RNA polymerase [3]; 10 mM VRC): approximately 1.5 fold
RNA yield versus 0 mM control (SP6 RNA polymerase; 0.1 mM VRC): no advantage in yield over the control
RNA yield versus 0 mM control (SP6 RNA polymerase; 1 mM VRC): inhibition of SP6 RNA polymerase
RNA yield versus 0 mM control (SP6 RNA polymerase; 10 mM VRC): inhibition of SP6 RNA polymerase
